Source: the NIST ThermoML archive (doi:10.1021/je049894j)
± gives the expanded uncertainty stated by the source.

Conditions: Liquid

| SMILES | vapor or sublimation pressure (468.15 K) [kPa] | vapor or sublimation pressure (483.15 K) [kPa] | vapor or sublimation pressure (498.15 K) [kPa] | vapor or sublimation pressure (513.15 K) [kPa] |
| --- | --- | --- | --- | --- |
| CCC(C)O (centres undefined) [butan-2-ol] | 1351 ± 31 | 1791 ± 39 | 2329 ± 49 | 2946 ± 60 |
| CCCCO [butan-1-ol] | 833 ± 26 | 1182 ± 37 | 1558 ± 48 | 2027 ± 63 |
| CCCCC [pentane] | 3286 ± 100 |  |  |  |
